In patent US20260132123A1, “ABAD INHIBITOR COMPOUNDS” (UNIVERSITY COURT OF THE UNIVERSITY OF ST ANDREWS, priority 2021, published 2026):
pEC50: −log10 of the molar value.

Target: T1, 17β-HSD10 (Homo sapiens, UniProt Q99714)
T1 construct: Histev (histidine tag with TEV site) (N, cleaved yes); made in house; host or cells: E. coli BL21-CodonPlus
T1 sequence (Q99714 1-261): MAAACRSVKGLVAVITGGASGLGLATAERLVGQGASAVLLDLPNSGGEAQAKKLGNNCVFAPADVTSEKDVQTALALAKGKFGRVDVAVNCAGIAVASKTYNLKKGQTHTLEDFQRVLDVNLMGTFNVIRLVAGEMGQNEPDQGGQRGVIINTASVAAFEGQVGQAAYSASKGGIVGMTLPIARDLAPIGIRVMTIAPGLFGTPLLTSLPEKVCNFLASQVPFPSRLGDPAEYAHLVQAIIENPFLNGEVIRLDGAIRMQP
Assay: 17β-HSD10 (ABAD) enzyme inhibition assay, NADH oxidation read at 340 nm (primary screen and dose response)
Type: biochemical
Details: for pEC50 / Max. Effect (%) / Hill Slope / Max. Fit / Min. Fit: recombinant 17βHSD10 enzyme assay; for Hill Slope / Max. Fit / Min. Fit: curve fit; for ABAD plC50: primary screening, resynthesized HTS hit compounds
Experimental: Cell pellets of E. coli BL21-CodonPlus cells containing Histev-17β-HSD10 protein were re-suspended for 30 min, 4° C., in lysis buffer (20 mM NaH2PO4, 30 mM imidazole, 500 mM NaCl, 10% (v/v) glycerol, pH 7.5) with the addition of complete ethylenediaminetetraacetic acid (EDTA)-free protease inhibitor tablets (Roche), lysozyme (1 mg/mL), deoxyribonuclease (DNase) (20 μg/mL) and Triton X-100 (0.1% (v/v)). Cells were lysed by passage through a cell disruptor at 30 kPSI (Constant Systems Ltd) and the lysate was cleared by centrifugation (Sorvall Evolution RC, rotor S5-34 55-34 angle, 20500 rpm, 30 min, 4° C.). Cleared lysate was filtered (0.45 μm membrane; Whatman) then applied to a Ni-nitrilotriacetic acid (NTA) (GE Healthcare) column pre-washed with lysis buffer and protein eluted with 300 mM imidazole buffer (20 mM NaH2PO4, 300 mM imidazole, 500 mM NaCl, 10% (v/v) glycerol, pH 7.5). […] Protein digestion and dialysis was carried out at 4° C. for 16 h.
Complete digestion was firstly checked by sodium dodecyl sulfate-polyacrylamide gel electrophoresis (SDS-PAGE), then fully digested protein was passed over a second Ni-column and the flow-through, containing 17β-HSD10 protein, was concentrated using a Vivaspin column (10 kDa MWCO, GE Healthcare) to ˜7 mL before final purification using gel filtration to remove imidazole (Hi-Load 16/60 Superdex 75 prep grade column, GE Healthcare, flow rate 1.5 mL/min). Protein was eluted in gel filtration buffer (10 mM trisaminomethane (Tris-HCl), 150 mM NaCl, 10% glycerol, pH 7.5) and concentrated (Vivaspin column (10 kDa molecular weight cut off (MWCO), GE Healthcare)) to 10 mg/mL. Aliquots (10 μL) were taken and flash frozen in liquid nitrogen before final storage at −80° C.
The assay buffer used contains: 10 mM Tris. HCl (pH 7.4), 150 mM NaCl, 1 mM DTT, 0.005% Tween (polysorbate 20) and 0.01% bovine serum albumin (BSA). As indicated for some experiments the assay buffer was supplemented with 100 units/ml bovine liver catalase. All experiments were conducted in clear bottom 384-well or 1536-well low volume microplates (Corning) with a final assay volume of 20 μL and the reaction progress was monitored by oxidation of NADH as determined by reduction in absorbance at 340 nm read on the EnVision plate reader (PerkinElmer).
For primary screening an endpoint assay format was adopted in which an Echo acoustic liquid dispenser (Labcyte) was used to transfer 20 nL of either reference standard, dimethylsulfoxide (DMSO) control ([…] final assay concentration (FAC)) or test compounds (10 μM FAC) to the assay plate. 10 μL of 17β-HSD10 enzyme in assay buffer (2.5 nM, FAC) was then added to the plates using the Preddator liquid handling robot (Redd and Whyte) and plates were incubated at room temperature for 15 minutes. 10 μL of substrate mixture (100 μM acetoacetyl-CoA and 100 μM NADH, FAC) was added with the Preddator. To start the reaction and the plates were left to incubate for 35 minutes at room temperature before the absorbance at 340 nm was read on the EnVision plate reader (PerkinElmer). For kinetic assay format and dose response follow up experiments the same protocol was adopted but the absorbance at 340 nm was monitored constantly for 45 minutes from immediately after the reaction was started.

| Structure (SMILES) | pEC50 | Max. Effect (%) | Hill Slope | Max. Fit | Min. Fit | ABAD plC50 | 17β-HSD10 / ABAD activity in words (SAR discussion) |
| --- | --- | --- | --- | --- | --- | --- | --- |
| Cc1ccsc1C(=O)N1CCC[C@H]1c1ccccc1-c1ccccc1Cl (single isomer, unassigned) [ESC1002767] | 6.81 | 96% | 0.98 | 96 | −2 | – | – |
| Cc1ccsc1C(=O)N1CCC[C@H]1c1ccccc1-c1cccc(Cl)c1 (single isomer, unassigned) [ESC1002768] | < 4.70 | 12% | – | – | – | – | – |
| Cc1ccsc1C(=O)N1CCC[C@H]1c1ccccc1-c1cccc(C(F)(F)F)c1 (single isomer, unassigned) [ESC1002789] | < 4.70 | – | – | – | – | – | – |
| Cc1ccsc1C(=O)N1CCC[C@H]1c1ccccc1-c1cccc(C(F)(F)F)c1 (single isomer, unassigned) [ESC1002790] | 6.18 | – | – | – | – | – | – |
| O=C(c1[nH]ncc1Cl)N1CCC[C@H]1c1ccccc1-c1cccc(O)c1 (single isomer, unassigned) [ESC1002798] | < 4.70 | 18% | – | – | – | – | – |
| O=C(c1sccc1Cl)N1CCC[C@H]1c1ccccc1-c1cc(O)cc(F)c1 (single isomer, unassigned) [ESC1002800] | < 4.70 | 10% | – | – | – | – | – |
| O=C(c1sccc1Cl)N1CCC[C@H]1c1ccccc1-c1cc(O)cc(F)c1 (single isomer, unassigned) [ESC1002801] | 7.29 | 100% | 1.2 | 96 | −1 | – | – |
| O=C(c1sccc1Cl)N1CCC[C@H]1c1ccccc1-c1ccc(F)c(O)c1 (single isomer, unassigned) [ESC1002838] | 7.29 | 99% | 1.2 | 97 | 0 | – | – |
| O=C(c1sccc1Cl)N1CCC[C@H]1c1ccccc1-c1ccc(F)c(O)c1 (single isomer, unassigned) [ESC1002839] | 5.38 | 85% | 1.1 | 96 | −4 | – | – |
| O=C(c1sccc1Cl)N1CCC[C@H]1c1ccccc1-c1cccc(O)c1F (single isomer, unassigned) [ESC1002840] | 6.77 | 98% | 1.1 | 97 | −4 | – | – |
| O=C(c1sccc1Cl)N1CCC[C@H]1c1ccccc1-c1cccc(O)c1F (single isomer, unassigned) [ESC1002841] | < 4.70 | 27% | – | – | – | – | – |
| O=C(c1sccc1Cl)N1CCC[C@H]1c1ccccc1-c1cc(O)ccc1F (single isomer, unassigned) [ESC1002843] | 4.97 | 70% | 1.1 | 100 | −1 | – | – |
| CCCn1c(C(N)=O)cc2cc(-c3cn[nH]c3)ccc21 [ESC1002019] | 5.40 | 85% | 1.3 | 93 | 2 | – | – |
| COc1ccc(-c2ccc(-c3cn[nH]c3)s2)c(OC)c1OC [ESC1002024, 4-[5-(2,3,4-trimethoxyphenyl)-2-thienyl]-1H-pyrazole] | 5.40 | 89% | 1.2 | 101 | 2 | – | – |
| CC(C)CN(CC(C)C)c1cccc(N(C)Cc2cnc[nH]2)c1 [ESC1002025] | < 4.70 | 15% | – | – | – | – | – |
| Cc1ccc(C(=O)N(CC(C)C)c2cccc(N(C)Cc3cnc[nH]3)c2)cc1 [ESC1002032, N-[3-[1H-imidazol-5-ylmethyl(methyl)amino]phenyl]-N-isobutyl-4-methyl-benzamide] | 6.60 | 99% | 0.9 | 99 | 0 | 6.6 | – |
| CC(C)CN(C(=O)c1ccncc1)c1cccc(N(C)Cc2cnc[nH]2)c1 [ESC1002034, N-[3-[1H-imidazol-5-ylmethyl(methyl)amino]phenyl]-N-isobutyl-pyridine-4-carboxamide] | 5.80 | 92% | 0.8 | 106 | −3 | 5.8 | – |
| COc1cccc(C(=O)N(CC(C)C)c2cccc(N(C)Cc3cnc[nH]3)c2)c1 [ESC1002038, N-[3-[1H-imidazol-5-ylmethyl(methyl)amino]phenyl]-N-isobutyl-3-methoxy-benzamide] | 5.70 | 92% | 0.8 | 105 | −2 | 5.7 | – |
| CC(C)CN(C(=O)c1ccc(Cl)cc1F)c1cccc(N(C)Cc2cnc[nH]2)c1 [ESC1002042, 4-chloro-2-fluoro-N-[3-[1H-imidazol-5-ylmethyl(methyl)amino]phenyl]-N-isobutyl-benzamide] | 6.50 | 98% | 0.8 | 101 | −6 | 6.5 | – |
| Cc1ccc(C(=O)Nc2cccc(N(C)Cc3cnc[nH]3)c2)cc1 [ESC1002054, N-[3-[1H-imidazol-5-ylmethyl(methyl)amino]phenyl]-4-methyl-benzamide] | < 4.70 | 3% | – | – | – | – | – |
| CN(Cc1cncn1C(=O)OC(C)(C)C)c1cccc(NC(=O)c2ccccc2F)c1 [ESC1002055] | < 4.70 | 1% | – | – | – | – | – |
| CN(Cc1cnc[nH]1)c1cccc(NC(=O)c2ccccc2F)c1 [ESC1002056, 2-fluoro-N-[3-[1H-imidazol-5-ylmethyl(methyl)amino]phenyl]benzamide] | < 4.70 | 4% | – | – | – | – | – |
| CC(C)N(C(=O)c1ccccc1F)c1cccc(N(C)Cc2cnc[nH]2)c1 [ESC1002078, 2-fluoro-N-[3-[1H-imidazol-5-ylmethyl(methyl)amino]phenyl]-N-isopropyl-benzamide] | 6.20 | 97% | 1 | 101 | −1 | – | – |
| Cc1ccc(C(=O)N(c2cccc(N(C)Cc3cnc[nH]3)c2)C(C)C)cc1 [ESC1002080, N-[3-[1H-imidazol-5-ylmethyl(methyl)amino]phenyl]-N-isopropyl-4-methyl-benzamide] | 6.00 | 96% | 0.9 | 102 | 0 | – | – |
| O=C(c1ccccc1F)N1CCCc2ccc(NCc3cnc[nH]3)cc21 [ESC1002081, (2-fluorophenyl)-[7-(1H-imidazol-5-ylmethylamino)-3,4-dihydro-2H-quinolin-1-yl]methanone] | < 4.70 | 0% | – | – | – | – | potency was abolished |
| CN(Cc1cnc[nH]1)c1ccc2c(c1)N(C(=O)c1ccccc1F)CCC2 [ESC1002083, (2-fluorophenyl)-[7-[1H-imidazol-5-ylmethyl(methyl)amino]-3,4-dihydro-2H-quinolin-1-yl]methanone] | < 4.70 | 2% | – | – | – | – | – |
| Cc1ccc(C(=O)N(CC2CC2)c2cccc(N(C)Cc3c[nH]cn3)c2)cc1 [ESC1002399, N-(cyclopropylmethyl)-N-[3-[1H-imidazol-4-ylmethyl(methyl)amino]phenyl]-4-methyl-benzamide] | 6.00 | 95% | 1.1 | 99 | 2 | – | – |
